Data on two compounds can be found in patent US20150112057A1, “NOVEL CRYSTALLINE CEFOPERAZONE INTERMEDIATE” (DSM Sinochem Pharmaceuticals Netherlands B.V., priority 2011, published 2015).

SMILES strings stand for the structures.

The nature of data set [1]: Chemical degradation of 7-TMCA to 5-mercapto-1-methyltetrazole during dissolution and enzymatic condensation. The data set is classed as physicochemical. The note with it: during the dissolution step, titration with aqueous NaOH 5M. The protocol: (§1) The reactions were followed by quantitative HPLC analysis. The retention factors of 7-TMCA, HPGM, HPG and 5-mercapto-1-methyltetrazole were calculated using standards; the retention factor of D-7-(4-hydroxyphenylacetamido)-3-(1-methyl-1H-tetrazol-5-yl)thiomethylcephem-4-carboxylic acid was deducted based on mass balance in the first experiments and subsequently calculated using standard; the retention factor of cefatrizine was deducted on mass balance.
7-Amino-3-(1-methyl-1H-tetrazol-5-ylthiomethyl)-3-cephem-4-carboxylic acid (7-TMCA; 5 g) was added to distilled water (38 g) and cooled to 3° C. The mixture was stirred at 400 rpm and the pH was brought to 9.0 with aqueous NaOH (5M) whereafter the remainder of the reaction was carried out at pH 8.8. After 60-80 min, the suspension was filtered. The filtrate, containing 4.1 g of 7-TMCA, was place back in the reactor and immobilized penicillin G acylase mutant 1 (3.5 g, see Materials and Methods) was added and to the resulting mixture a solution of D-4-hydroxyphenylglycine methylester (HPGM) was dropped at speed of 7 mL/h by a syringe pump (dosing time 2 h). This solution was prepared by dissolving HPGM (4.0 g, 1.7 equiv.) in water (6.4 g) and H2SO4 25% (4.25 g in water). The enzymatic reaction was followed by analytical HPLC (see Materials and Methods) and stopped at the end of HPGM addition, by enzyme filtration. […]

Data set [2] has as its target T1, immobilized penicillin G acylase mutant 1 (Escherichia coli, UniProt P06875, F313A/F749L/S29L/V218E/V437L).
T1 construct: mutations V11A, A:S3L, A:V192E, B:F24A, B:V148L and B:F460L; made in house
The data set can be described thus: Enzymatic hydrolysis of HPGM to HPG. The data set is classed as biochemical. The note with it: water pH 8.7, 2° C., immobilized penicillin G acylase mutant 1 (5 g).
From the text: The production, isolation and purification of wild type and mutant penicillin G acylases may be carried out as described in WO 1996/005318 and WO 2003/055998. Alternatively, genes encoding mutant penicillin G acylases may be obtained by gene synthesis. Production of the mutant penicillin G acylase was achieved by cloning the genes encoding mutant penicillin G acylases into an appropriate expression vector, transforming a suitable host such as Escherichia coli with said vector and culturing the transformed host under conditions suitable for the production of the mutant penicillin G acylases and recovery and purification of the mutants was carried out as described in WO 2010/072765. […]
as §1
During the enzymatic condensation of 7-TMCA and HPGM the latter compound was hydrolyzed to HPG. […] In one of the reactors immobilized penicillin G acylase mutant 1 (5 g) was added and the two reactions were monitored by analytical HPLC.

The nature of data set [3]: Chemical hydrolysis of HPGM to HPG (chemical blank, no enzyme). It is filed as physicochemical. The following applies: water pH 8.7, 2° C. Here is the method: as §1
During the enzymatic condensation of 7-TMCA and HPGM the latter compound was hydrolyzed to HPG. […] Two reactions were started in parallel at 2° C. […] In one of the reactors immobilized penicillin G acylase mutant 1 (5 g) was added and the two reactions were monitored by analytical HPLC.

`Cn1nnnc1SCC1=C(C(=O)O)N2C(=O)[C@@H](N)[C@H]2SC1` [Example 7-TMCA, 7-amino-3-(1-methyl-1H-tetrazol-5-ylthiomethyl)-3-cephem-4-carboxylic acid]: in data set [1], the “amount of 5-mercapto-1-methyltetrazole (degradation product of 7-TMCA)” value is listed as “not detectable”.

With `COC(=O)[C@H](N)c1ccc(O)cc1` [HPGM, D-4-hydroxyphenylglycine methylester], the “time to complete conversion of HPGM to HPG by the enzyme” value in data set [2] is recorded as at most 5 min. In data set [3] (20 h), the “HPGM hydrolyzed in the chemical blank” value came to 9%. Also, the “formation of HPG from HPGM in the chemical blank” value in data set [3] (within 2 h) is “no HPG was recorded”.
